Data: US8076285B2, “Lysobactin amides” (Aicuris GmbH & Co. KG, priority 2006, dated 2011)
Read-outs that look alike come from different tables or passages of the source.

Experiments:
[1] = from H-[N3-amine free, N2-Cbz-(3R)-3-amino-Phe(4-NMe2)]-[(3R)-3-OH-Leu]-Leu-dArg-Ile-aThr-Gly-[(3S)-3-OH-Asn]-Ser-OH; amide bond; 28-membered ring; HATU/NMM; DMF; 9.3 mM
[2] = amide bond, 28-membered ring

Row | Compound | ring closure, isolated yield [2] [%] | other results
1 | CC[C@H](C)[C@@H]1NC(=O)[C@@H](CCCNC(=N)N)NC(=O)[C@H](CC(C)C)NC(=O)[C@H]([C@H](O)C(C)C)NC(=O)[C@@H](NC(=O)OCc2ccccc2)[C@@H](c2ccc(N(C)C)cc2)NC(=O)[C@H](CO)NC(=O)[C@H]([C@H](O)C(N)=O)NC(=O)CNC(=O)[C@H]([C@H](C)O)NC1=O | – | ring closure, yield after HPLC [1]: 52%
2 | [(3R)-N^2-(Benzyloxycarbonyl)-3-amino-L-phenylalanyl]-[(3R)-3-hydroxy-L-leucyl]-L-leucyl-D-arginyl-L-isoleucyl-L-allothreonyl-glycyl-[(2S)-2-amino-3-(9H-fluoren-9-ylmethoxycarbonyl)aminobutyryl]-L-serine C^1.9-N^3.1-lactam trifluoroacetate | 67 | –
3 | [(3R)-N^2-(Benzyloxycarbonyl)-3-amino-L-phenylalanyl]-[(3R)-3-hydroxy-L-leucyl]-L-leucyl-D-arginyl-L-isoleucyl-L-leucyl-glycyl-L-seryl-L-serine C^1.9-N^3.1-lactam trifluoroacetate | 97 | –
4 | N^2.1-(Benzyloxycarbonyl)-[(3S)-3-amino-O-methyl-D-tyrosyl)]-[(3R)-3-hydroxy-L-leucyl]-L-leucyl-D-arginyl-L-isoleucyl-L-allothreonyl-glycyl-[(3S)-3-hydroxy-L-asparaginyl]-L-serine C^1.9-N^3.1-lactam trifluoroacetate | – | ring closure, isolated yield ([2]; HATU/NMM, DMF, 7.5 mM, 0.0 °C): 96%
5 | [(3R)-N^2-(Benzyloxycarbonyl)-3-amino-L-phenylalanyl]-[(3R)-3-hydroxy-L-leucyl]-L-leucyl-D-arginyl-L-isoleucyl-L-seryl-glycyl-L-seryl-L-serine C^1.9-N^3.1-lactam trifluoroacetate | 81 | –
6 | [(3R)-N^2-(Benzyloxycarbonyl)-3-amino-L-phenylalanyl]-[(3R)-3-hydroxy-L-leucyl]-(3-trimethylsilyl-L-alanyl)-D-arginyl-L-isoleucyl-L-allothreonyl-glycyl-L-seryl-L-serine C^1.9-N^3.1-lactam trifluoroacetate | 98 | –
7 | [(3R)-N^2-(Benzyloxycarbonyl)-3-amino-L-phenylalanyl]-[(3R)-3-hydroxy-L-leucyl]-L-leucyl-D-arginyl-L-isoleucyl-L-allothreonyl-glycyl-[(3S)-3-hydroxy-L-asparaginyl]-L-serine C^1.9-N^3.1-lactam trifluoroacetate | – | ring closure, isolated yield ([2]; HATU/NMM, DMF, 0.0 °C): 73%
8 | [(3R)-N^2-(Benzyloxycarbonyl)-3-amino-L-phenylalanyl]-[(3R)-3-hydroxy-L-leucyl]-L-leucyl-D-arginyl-L-isoleucyl-L-allothreonyl-D-alanyl-[(3S)-3-hydroxy-L-asparaginyl]-L-serine C^1.9-N^3.1-lactam trifluoroacetate | 48 | –
9 | {(3R)-N^2-[(9H-Fluoren-9-ylmethoxy)carbonyl]-3-amino-L-phenylalanyl}-[(3R)-3-hydroxy-L-leucyl]-L-leucyl-[(2R)-2-amino-4-benzyloxycarbonylaminobutyryl]-L-isoleucyl-L-allothreonyl-glycyl-L-seryl-L-serine C^1.9-N^3.1-lactam trifluoroacetate | 85 | –
10 | [(3R)-N^2-(Benzyloxycarbonyl)-3-amino-L-leucyl]-[(3R)-3-hydroxy-L-leucyl]-L-leucyl-D-arginyl-L isoleucyl-L-allothreonyl-glycyl-[(3R)-3-hydroxy-L-asparaginyl]-L-serine C^1.9-N^3.1-lactam trifluoroacetate | 53 | –
11 | [(3R)-N^2-(Benzyloxycarbonyl)-3-amino-L-phenylalanyl]-[(3R)-3-hydroxy-L-leucyl]-L-norleucyl-D-arginyl)-L-isoleucyl-L-allothreonyl-glycyl-L-alanyl-L-serine C^1.9-N^3.1-lactam trifluoroacetate | 80 | –
